In patent US20110165277A1, “Biological Materials and Uses Thereof” (priority 2008, published 2011):
Where “and” joins values, the source holds several entries; their conditions need not be identical. Equal values may be shown once.

Columns and labels:
rumen fluid = assay: Methane production by buffered rumen fluid, sandalwood oil and synthetic replacements (Example 4); assay type: cell-based, cow; conditions: 5, 50 or 100 or 500 pg/ml; 16 hours
Procedure: Thirty ml of a 33% buffered solution of rumen fluid withdrawn from a rumen canulated cow was incubated with 0.3 g of a 50:50 hay barley mix at 39° C. under anaerobic conditions
After 16 hours the volume of gas produced and the percentage of methane in the headspace was measured and the resultant fermentation fluid was analysed for volatile fatty acids by HPLC.
Sandalwood oil from either Fluka or SAFC and two different batches of Javanol (Givaudan) or a single batch of Santaliff (International Flavors & Fragrances) (both Javanol and Santaliff are artifical Sandalwood replacements) were added in the amount of 5, 50 or 100 or 500 pg/ml to the 30 ml buffered solution of rumen fluid prior to incubation.

[1] = tested on: rumen contents in Rusitec; assay: Rusitec with Sandalwood oil and Javanol (Example 5); assay type: cell-based, cattle; conditions: 100 μg/ml
Procedure: The rumen-simulation technique (Rusitec) was used as described by Czerkawski and Breckenridge (1977). The nominal volume in each reaction vessel was 850 ml and the dilution rate was set at 0.88 per day, the infused liquid being artificial saliva (McDougall, Biochem J 1948 43, 99-109) at pH 8.4. Inocula for the fermentation vessels were obtained from a pooled sample (liquid and particulate rumen contents) from three rumen-cannulated cattle fed on a conserved diet. On the first day of the experiment 300 ml of strained rumen fluid, 300 ml of water and 300 ml of artificial saliva were placed in each reaction vessel. Solid rumen contents (80 g) were weighed into a nylon bag and one of these was placed inside the food container in each vessel together with a bag (20 g/d) of a basal diet of grass hay, barley, molasses, soyabean meal and a vitamin and mineral mixture. The food was provided in nylon bags, pore size 50 μm, which were gently agitated in the liquid phase. Two bags were present at any time and one bag was replaced each day to give a 48 h incubation. The bags that were removed from the vessels were placed in plastic bags, and their contents washed and squeezed with 40 ml of artificial saliva. This was done twice for each bag, and the combined washings were poured back into the reaction vessels. Fermentation vessels were flushed with anaerobic grade CO2 before filling, after filling, and then every day during feeding (when the nylon bags with the food were changed). The duration of the experiment was 19 days, during which four vessels received Sandalwood oil (added the basal diet to reach an initial concentration of 100 μg/ml) four vessels received Javanol (added the basal diet to reach an initial concentration of 100 μg/ml) the remaining vessels were controls. Volatile fatty acids, methane and bacterial numbers were measured on days 18 and 19 of the experiment. On day 19, Listeria inocula was added and it numbers traced over the last 24 hr of the experiment.

Listeria monocytogenes = assay: Listeria survival in Rusitec (Example 5); assay type: cell-based; conditions: 100 μg/ml; 24h after pathogen addition
Procedure: Volatile fatty acids, methane and bacterial numbers were measured on days 18 and 19 of the experiment. On day 19, Listeria inocula was added and it numbers traced over the last 24 hr of the experiment.

[2] = Further sandalwood analogues: volatile fatty acid and methane production (Example 7, Table 14); assay type: cell-based
Procedure: (§1) Further testing of sandalwood analogues was conducted following the protocols described in Examples 3 and 5.

[3] = Further sandalwood analogues: CH4 per bottle, compound in DMSO or ETOH (Example 7, Table 15); assay type: cell-based; conditions: for CH4: single bottles rep a, b, c, listed as Javanol batch no. 9000699712
Procedure: as §1

Row | SMILES | methane compared to the control experiments (rumen fluid) | Acetate ([2]; 5 μg/ml) | Butyrate ([2]; 5 μg/ml) | Methane ([2]; 5 μg/ml) | Propionate ([2]; 5 μg/ml) | TVFA ([2]; 5 μg/ml) | Acetate ([2]; 50 μg/ml) | Butyrate ([2]; 50 μg/ml) | Methane ([2]; 50 μg/ml) | Propionate ([2]; 50 μg/ml) | TVFA ([2]; 50 μg/ml) | Acetate ([2]; 100 μg/ml) | Butyrate ([2]; 100 μg/ml) | Methane ([2]; 100 μg/ml) | Propionate ([2]; 100 μg/ml) | TVFA ([2]; 100 μg/ml) | Acetate ([2]; 500 μg/ml) | Butyrate ([2]; 500 μg/ml) | Methane ([2]; 500 μg/ml) | Propionate ([2]; 500 μg/ml) | other results
1 | CC1(CO)CC1CC1CC2CC2(C)C1(C)C (stereo not shown) [Javanol, (1-Methyl-2-(1,2,2-trimethylbicyclo[3.1.0]hex-3-ylmethyl)cyclopropyl)methanol] | significantly decreased | 2401 μmol/g of feed added | 538 μmol/g of feed added | 978 μmol/g of feed added | 493 μmol/g of feed added | 3432 μmol/g of feed added | 2622 μmol/g of feed added | 593 μmol/g of feed added | 904 μmol/g of feed added | 524 μmol/g of feed added | 3739 μmol/g of feed added | 2504 μmol/g of feed added | 499 μmol/g of feed added | 859 μmol/g of feed added | 542 μmol/g of feed added | 3545 μmol/g of feed added | 2045 μmol/g of feed added | 229 μmol/g of feed added | 744 μmol/g of feed added | 833 μmol/g of feed added | 48 h DM degradation (%) [1]: 33.6%; Acetate [1]: 23.9 mmol/day; Bacteria counts Cellulolytic [1]: 1.9e+06 mL⁻¹; Bacteria counts Total [1]: 4.9e+09 mL⁻¹; Butyrate [1]: 4.4 mmol/day; Methane production [1]: decreased; Propionate [1]: 16.7 mmol/day; Total VFA [1]: 45.0 mmol/day; VFA production [1]: no effect; CH4 ([1]; days 18 and 19): 2.51 mmol/day; Listeria monocytogenes survival (Listeria monocytogenes): not; TVFA ([2]; 500 μg/ml): 3107 μmol/g of feed added; CH4 (mean of rep a-c) ([3]; 150 ug/30 ml in 200 ul DMSO): 913.6635 µmol/g; CH4 ([3]; 150 ug/30 ml in 200 ul DMSO): 956.9591 µmol/g and 888.4071 µmol/g and 895.6242 µmol/g; CH4 (mean of rep a-c) ([3]; 150 ug/30 ml in 200 ul ETOH): 1373.522 µmol/g; CH4 ([3]; 150 ug/30 ml in 200 ul ETOH): 1403.051 µmol/g and 1381.609 µmol/g and 1335.905 µmol/g; CH4 (mean of rep a-c) ([3]; 15000 ug/30 ml in 200 ul DMSO): 605.2838 µmol/g; CH4 ([3]; 15000 ug/30 ml in 200 ul DMSO): 647.283 µmol/g and 563.0216 µmol/g and 605.5467 µmol/g; CH4 (mean of rep a-c) ([3]; 15000 ug/30 ml in 200 ul ETOH): 1158.255 µmol/g; CH4 ([3]; 15000 ug/30 ml in 200 ul ETOH): 1145.346 µmol/g and 1230.103 µmol/g and 1099.314 µmol/g
2 | CC(=CCC1CC=C(C)C1(C)C)CO (stereo not shown) [Santaliff, 2-Methyl-4-(2,2,3-trimethyl-3-cyclopenten-1-yl)-2-buten-1-ol] | significantly decreased | 2174 μmol/g of feed added | 458 μmol/g of feed added | 1031 μmol/g of feed added | 466 μmol/g of feed added | 3098 μmol/g of feed added | 2142 μmol/g of feed added | 490 μmol/g of feed added | 1052 μmol/g of feed added | 442 μmol/g of feed added | 3074 μmol/g of feed added | 2301 μmol/g of feed added | 462 μmol/g of feed added | 844 μmol/g of feed added | 543 μmol/g of feed added | 3305 μmol/g of feed added | 2101 μmol/g of feed added | 296 μmol/g of feed added | 801 μmol/g of feed added | 741 μmol/g of feed added | TVFA ([2]; 500 μg/ml): 3138 μmol/g of feed added
